This is an account of results in a melting point compilation (Tetko et al.).

Molecules are shown by their SMILES.

Usually melting point stands for the temperature of the solid-liquid transition.

`O=C(O)C1CCN(C(=O)N2CCCC2)CC1` displayed a melting point of 144 to 146 °C.

The molecule `CC(O)c1ccc(Oc2ccc(Br)cc2)cc1` (stereo not drawn) returned a melting point of 67 to 69 °C.

Molecule `Cc1c(C(=O)O)oc2ccc(Br)cc12` returned a melting point of 249 to 251 °C.

In turn, `Cc1nn(-c2ncc(C(F)(F)F)cc2Cl)c(C(F)(F)F)c1C(=O)O` came in with a melting point of 167 to 169 °C.

`Sc1nnc(Cc2ccccc2)o1` gave a melting point of 124 to 126 °C.

`COc1ccc(N)cc1-n1nnnc1C1CC1`: the melting point fell in the range of 161 to 163 °C.

In the case of `N#Cc1ccccc1CN1CCCC1C(N)=O` (stereo not drawn), the melting point was in the range of 88 to 90 °C.

As to `CC(SCC(=O)Nc1cccc(Br)c1)C(=O)O` (stereo not drawn), the melting point lay in the range of 106 to 108 °C.

For the molecule `Cc1nc2cc(O)nn2c(C)c1CCC(=O)O`, the melting point lay within 302 to 304 °C.

`O=C(O)c1cc(S)ccc1[N+](=O)[O-]`: the melting point was 234 to 236 °C.

With `CC1NCCn2c(C(=O)NC3CC3)ccc21` (stereo not drawn), the melting point fell in the range of 128 to 130 °C.

`CCOC(=O)C(=O)CC(=O)c1ccc2c(c1)OCO2`: the melting point lay within 61 to 63 °C.

Molecule `Nc1nc2ccc(OCC(F)(F)F)cc2s1` gave a melting point of 134 to 136 °C.

Molecule `OC1CCc2c(Cl)cccc21` (stereo not drawn) returned a melting point of 69 to 71 °C.

Take `COC(=O)c1nc(Cc2ccccc2Cl)n2ccccc12`: the melting point fell in the range of 131 to 133 °C.

As to `O=C(c1cccnc1)C1CCOCC1`, the melting point was in the range of 43 to 45 °C.

In turn, `CNc1ncccc1C(N)=O` registered a melting point of 181 to 183 °C.

In turn, `CN(C)C1CCN(c2ccc(N)cc2)CC1` came in with a melting point of 119 to 121 °C.

Take `Cc1cc2cc(C(=O)O)oc2cc1C`: the melting point lay in the range of 269 to 271 °C.

For the molecule `OCCOc1ccc(Br)cn1`, the melting point lay in the range of 51 to 53 °C.

Molecule `CC1(C)CC(=O)c2ccccc2O1` returned a melting point of 87 to 89 °C.

On to `CCCCOc1ccc2cc(C(=O)O)[nH]c2c1`, for which the melting point was in the range of 173 to 175 °C.

Turning to `CCNC(=O)c1ccc(O)cc1`, the melting point lay in the range of 109 to 111 °C.

`O=C(O)c1sccc1-c1ccc(F)cc1` gave a melting point of 199 to 201 °C.

`CC(N)c1ccc(-c2cncnc2)cc1` (stereo not drawn) showed a melting point of 47 to 49 °C.

For `Cc1cc([N+](=O)[O-])cnc1N1CCCCC1C` (stereo not drawn), the melting point is 48 to 50 °C.

Regarding `O=C(O)CCn1cnc2sc3c(c2c1=O)CCCC3`, the melting point lay within 193 to 195 °C.

`O=C(O)c1ccc(F)c(S(=O)(=O)N2CCC2)c1` yielded a melting point of 180 to 182 °C.

For the molecule `O=c1[nH]c2ccc(NCc3ccc(Cl)cc3)cc2[nH]1`, the melting point was 264 to 266 °C.

`NC(=O)NCCCC(=O)O` returned a melting point of 171 to 173 °C.

Molecule `NCCC(=O)N1CCN(c2ccccn2)CC1` registered a melting point of 76 to 78 °C.

`CCc1[nH]nc(C(=O)O)c1[N+](=O)[O-]` registered a melting point of 149 to 151 °C.

In turn, `CN(C)C(=O)c1ccc(C#N)cc1` had a melting point of 93 to 95 °C.

Molecule `O=C(O)c1csc(S(=O)(=O)Cl)c1` showed a melting point of 130 to 132 °C.

`CC(C)(C)OC(=O)Nc1cc(C(=O)O)ccc1F` came in with a melting point of 177 to 179 °C.

As for `CCOC(=O)c1nc(NCCc2ccccc2)sc1C`, the melting point was 109 to 111 °C.

In turn, `CNCc1nc2ccccc2s1` came in with a melting point of 30 to 34 °C.

With `Fc1ccc(NC(=NC2CC2)c2ccccc2)cc1`, the melting point lay in the range of 92 to 94 °C.

`NCCc1cc2ccccc2[nH]1` had a melting point of 95 to 97 °C.

Take `Nc1cc(-c2cccs2)ncn1`: the melting point fell in the range of 222 to 224 °C.

As to `c1cc2c(cn1)NCCCN2`, the melting point was 121 to 123 °C.

For `Cn1cccc1C(=O)NC1CCNCC1`, the melting point fell in the range of 195 to 197 °C.

`Cc1ccc(Cl)c(N)c1C(=O)O` had a melting point of 119 to 121 °C.

Molecule `Brc1cnn(-c2cccnc2)c1` had a melting point of 126 to 128 °C.

On to `CC(N)c1ccc(NC(=O)c2ccc(F)cc2)cc1` (stereo not drawn), for which the melting point was 110 to 112 °C.

As to `O=C(O)c1cc(Cl)ccn1`, the melting point was 170 to 174 °C.

In turn, `Nc1ncc(-c2ccc(Br)cc2)[nH]1` came in with a melting point of 194 to 196 °C.

`COc1ccc(Cn2nccc2N)cc1OC` displayed a melting point of less than 17 °C.

For the molecule `Cc1[nH]c(=O)[nH]c(=O)c1CO`, the melting point was in the range of 326 to 328 °C.

`COc1ccccc1-c1cc(C(=O)O)c2c(C)noc2n1`: the melting point lay in the range of 229 to 231 °C.

With `CC(C)c1c(C(=O)O)cnn1-c1ccccn1`, the melting point is 129 to 131 °C.

Take `CC1(c2cccc(Cl)c2)NC(=O)NC1=O` (stereo not drawn): the melting point is 200 to 202 °C.

The molecule `COc1cc(F)cc(F)c1S(=O)(=O)Cl` had a melting point of 75 to 77 °C.

`COC(=O)c1ccc(CBr)cc1OC` yielded a melting point of 44 to 46 °C.

`CCOc1ccc(S(=O)(=O)NC(=O)c2ccccc2)cc1`: the melting point fell in the range of 85 to 87 °C.

Turning to `O=C(O)Cc1cc(Cl)ccc1Cl`, the melting point lay within 101 to 103 °C.

In turn, `Cc1ccc(C(=O)CCC(=O)O)s1` registered a melting point of 99 to 101 °C.

On to `O=C(O)CCc1ccc(O)c(Cl)c1`, for which the melting point lay in the range of 84 to 86 °C.

With `c1cncc(-c2ncn[nH]2)c1`, the melting point lay within 173 to 175 °C.

`O=C(O)c1cccc(-n2cccn2)n1`: the melting point was 184 to 186 °C.

In turn, `Cn1ccnc1C(O)(CC(=O)O)C(F)(F)F` (stereo not drawn) displayed a melting point of 186 to 188 °C.

In turn, `CCS(=O)(=O)c1ccc(C(=O)O)cc1` yielded a melting point of 216 to 218 °C.

On to `COc1ccc(-c2nc(C=O)cs2)cc1`, for which the melting point is 97 to 99 °C.

For the molecule `Clc1ccc(NCc2ccccc2)cc1`, the melting point is 47 to 49 °C.

In the case of `Nc1ncnc(Nc2ccc(F)cc2)n1`, the melting point was 249 to 251 °C.

Molecule `NC(C(=O)O)c1ccc2ccccc2c1` (stereo not drawn) displayed a melting point of 251 to 253 °C.

The molecule `O=C(O)c1cc2ccccc2nc1N1CCCC1` showed a melting point of 169 to 171 °C.

In the case of `CCOC(=O)c1cnn2c3c(cnc12)CCOC3=O`, the melting point lay within 246 to 248 °C.

`O=C(O)Cn1cnc([N+](=O)[O-])n1`: the melting point lay in the range of 187 to 189 °C.

In turn, `Nc1c(Br)cc(Cl)cc1C(=O)O` yielded a melting point of 232 to 234 °C.

In turn, `Nc1ccc(N)c(S(=O)(=O)Nc2ccccc2Cl)c1` had a melting point of 213 to 215 °C.

`COc1cc(C(=O)O)cc(OC)c1C(C)C` registered a melting point of 164 to 166 °C.

In the case of `NNc1c(Cl)cc(C(=O)O)cc1Cl`, the melting point lay in the range of 207 to 209 °C.

Molecule `NC(=O)NC(CC(=O)O)c1ccccc1Cl` (stereo not drawn) gave a melting point of 163 to 165 °C.

On to `CCOC(=O)CC(=O)CN1C(=O)c2ccccc2S1(=O)=O`, for which the melting point lay in the range of 104 to 106 °C.

On to `Cc1c(C(=O)O)cnn1C(C)(C)C`, for which the melting point fell in the range of 132 to 134 °C.

In turn, `O=C(NCC(F)(F)F)c1ccc(S(=O)(=O)Cl)cc1` showed a melting point of 139 to 141 °C.

On to `NC(=O)c1ccccc1I`, for which the melting point was 183 to 185 °C.

In turn, `Brc1ccc2ncnc(N3CCNCC3)c2c1` returned a melting point of 99 to 101 °C.

`CC(C)NC(=O)CCCl` gave a melting point of 67 to 69 °C.

`CC(O)c1ccccc1-c1ccccc1` (stereo not drawn) had a melting point of 104 to 106 °C.

As to `O=C(O)C1CCC(NC(=O)C2CCCC2)CC1` (stereo not drawn), the melting point lay in the range of 161 to 163 °C.

For `Cc1nn(C)c2sc(C(=O)NC(C)C(=O)O)cc12` (stereo not drawn), the melting point fell in the range of 269 to 271 °C.

In turn, `CN(C)Cc1nc(Cl)c2c(-c3ccccc3)csc2n1` yielded a melting point of 114 to 116 °C.

For the molecule `O=C(c1ccc[nH]1)N1CCCNCC1`, the melting point lay in the range of 143 to 145 °C.

As to `O=C(O)c1cc(O)nc2ccc(Br)cc12`, the melting point fell in the range of 355 to 357 °C.

The molecule `NS(=O)(=O)N1CCCC1` showed a melting point of 96 to 98 °C.

In the case of `O=Cc1c(Cl)cccc1OCc1ccccc1Cl`, the melting point lay within 92 to 94 °C.

`N#CC1=C(N)N2Cc3ccccc3CC2C1=O` (stereo not drawn) showed a melting point of 307 to 309 °C.

Molecule `c1coc(-c2nc(C3CCCCC3)n[nH]2)c1` returned a melting point of 147 to 149 °C.

As to `O=C(O)C1CCS(=O)(=O)C1` (stereo not drawn), the melting point was 135 to 137 °C.

`CC(=O)c1cccc(N2CCOC2=O)c1` registered a melting point of 82 to 84 °C.

For the molecule `O=C(CCl)NCc1ccc(C(=O)O)cc1`, the melting point lay within 193 to 195 °C.

Turning to `O=C(O)c1c[nH]c(=O)cn1`, the melting point is 265 to 267 °C.

Turning to `O=C(CCCl)Nc1ccccc1Br`, the melting point fell in the range of 104 to 106 °C.

With `CCC1CCCCC1NC(=O)c1ccnc(F)c1` (stereo not drawn), the melting point fell in the range of 69 to 71 °C.

Regarding `O=C(O)c1cc(Cl)c2c(c1)OCCO2`, the melting point was in the range of 251 to 253 °C.

On to `CC(C)Oc1ccc(S(=O)(=O)Cl)cc1Cl`, for which the melting point lay within 95 to 97 °C.

Take `NC(=S)C1CN(Cc2ccccc2)CCO1` (stereo not drawn): the melting point lay within 90 to 92 °C.

The molecule `CC(CO)NC(=O)C1=Cc2cc(Br)ccc2OC1` (stereo not drawn) showed a melting point of 157 to 159 °C.

Consider `N#Cc1cccc(-n2ccnc2)n1`, for which the melting point lay in the range of 97 to 99 °C.

`O=S(=O)(c1ccc(CBr)cc1)C(F)F` yielded a melting point of 57 to 61 °C.

`Cc1c(C=O)cc(C#N)n1C`: the melting point fell in the range of 85 to 97 °C.

Regarding `Cc1cc([N+](=O)[O-])sc1Br`, the melting point was in the range of 37 to 39 °C.

As to `COc1ccc(C(=O)Cc2ccc(F)cc2)cc1`, the melting point is 106 to 108 °C.

With `Cc1nc(-c2ccccn2)sc1C(=O)O`, the melting point lay in the range of 235 to 237 °C.

With `COc1cc(NC(=O)NN)c(OC)cc1Cl`, the melting point lay within 168 to 170 °C.

For `O=C1c2ccccc2C(=O)N1c1cnn(Cc2ccccc2)c1`, the melting point is 149 to 151 °C.

The molecule `CC(C)c1nn(-c2ccccc2)c(Cl)c1C=O` came in with a melting point of 53 to 55 °C.

Molecule `Cc1cc(S(=O)(=O)Cl)sc1C(=O)O` came in with a melting point of 194 to 196 °C.

Molecule `Cn1cncc1CO` had a melting point of 112 to 114 °C.

`CC(NC(=O)C(Br)C(C)C)c1ccccc1` (stereo not drawn) gave a melting point of 73 to 75 °C.

Turning to `CCNC(=O)c1ccc(CN)cc1`, the melting point was in the range of 92 to 94 °C.

In turn, `O=C(O)CCn1ncc(=O)c2ccccc21` returned a melting point of 130 to 132 °C.

`O=C(NC1CCCNC1)c1ccccc1` (stereo not drawn) showed a melting point of 130 to 132 °C.

For `NNC(=O)CN1CCCC1=O`, the melting point lay in the range of 99 to 101 °C.

As to `Nc1ccc(SCc2ccccc2)cn1`, the melting point lay in the range of 94 to 96 °C.

In turn, `COc1ccc(-c2noc(=O)[nH]2)cc1OC` yielded a melting point of 211 to 213 °C.

The molecule `N#CC1(N)CCSC1` (stereo not drawn) yielded a melting point of 54 to 56 °C.

Take `Nc1nonc1-c1ccccn1`: the melting point was in the range of 124 to 126 °C.

As for `CCNC(=O)c1ccc(C)c(N)c1`, the melting point was 74 to 76 °C.

In the case of `O=C(O)CSc1nc(-c2cccnc2)no1`, the melting point lay within 154 to 156 °C.

The molecule `ClCc1noc(-c2ccoc2)n1` came in with a melting point of 77 to 79 °C.
